Measured values as given in article PMC4823124, “Selective targeting of BCL6 induces oncogene addiction switching to BCL2 in B-cell lymphoma” (Oncotarget, 2015).

Legend:
[1] = test system: OCI-Ly4; assay: Cell viability, RI-BPI, ABT-737 or combination; assay type: cell-based; settings: BCL6-independent GCB-DLBCL cell line OCI-Ly4; 48 h; quintuplicates
Description: Cells were grown on U-bottom 96-well plates at respective concentrations sufficient to keep untreated cells under exponential growth by the time of read-out after treatment. Cells were exposed to each drug alone and to the combination of both drugs on the same plate in 48 h experiments. In sequential experiments, compounds were added 48 h apart in 72 h experiments. Cell viability was then determined using a fluorometric assay based on the resazurin reduction activity of the cells (Cell Titer Blue, Promega) and confirmed by trypan blue dye-exclusion (Sigma). […] Standard curves were obtained for each individual cell line with the cell count and fluorescence values. The number of viable cells was obtained using the least-squares regression method of the standard curve and by doing a ratiometric quantification of viable cells normalized to the respective controls. […] A cell killing effect was calculated as the 1 — normalized viability value.
(§1) www.impactjournals.com/oncotarget/ Oncotarget, Supplementary Materials 2015
Supplementary Figure S2: Baseline features of DLBCL cells responsive and resistant to RI-BPI. A. Baseline features of
RI-BPI sensitive (S) and resistant (R) groups of DLBCL cells according to cell-of-origin (COO) classification into GCB and ABC groups,
the presence of BCL6 translocation (3q27) and BCL2 mutation (including amplification and translocation). […]

[2] = test system: BCL2 independent DLBCL cells; assay: Dose reduction index, sequential RI-BPI then BH3 mimetic; assay type: cell-based; settings: pre-treated 48 h with RI-BPI, sequential 72 h; all but one (SU-DHL8) of the BCL2 independent DLBCL cell lines, including OCI-Ly7
Description: (§2) Cells were grown on U-bottom 96-well plates at respective concentrations sufficient to keep untreated cells under exponential growth by the time of read-out after treatment. Cells were exposed to each drug alone and to the combination of both drugs on the same plate in 48 h experiments. In sequential experiments, compounds were added 48 h apart in 72 h experiments. Cell viability was then determined using a fluorometric assay based on the resazurin reduction activity of the cells (Cell Titer Blue, Promega) and confirmed by trypan blue dye-exclusion (Sigma). Fluorescence was determined for controls and three replicates per treatment condition using the Synergy4 microplate reader (BioTek). Standard curves were obtained for each individual cell line with the cell count and fluorescence values. The number of viable cells was obtained using the least-squares regression method of the standard curve and by doing a ratiometric quantification of viable cells normalized to the respective controls. Experiments were conducted in triplicates. A cell killing effect was calculated as the 1 — normalized viability value.

[3] = test system: DoHH2; assay: Growth inhibition (GI50); assay type: cell-based; settings: 48 h, resazurin reduction
Description: as §2

[4] = test system: SU-DHL4; assay: Growth inhibition (GI50); assay type: cell-based; settings: 48 h, resazurin reduction
Description: as §2

[5] = test system: SC-1; assay: Growth inhibition (GI50); assay type: cell-based; settings: 48 h, resazurin reduction
Description: as §2

[6] = test system: SU-DHL6; assay: Growth inhibition (GI50); assay type: cell-based; settings: 48 h, resazurin reduction
Description: as §2

[7] = test system: OCI-Ly7; assay: Growth inhibition (GI50); assay type: cell-based; settings: OCI-Ly7 (harbors a BCL2 deletion); Figure 2A, for ABT-737 also ref 14
Description: as §2

[8] = test system: OCI-Ly1 cells; assay: Cell viability of OCI-Ly1 cells transfected with siRNA and treated with ABT-737; assay type: cell-based; settings: ABT-737 250 nM for 72 h
Description: DLBCL cells (3 × 10^6 to 5 × 10^6) were transfected with 1 micromolar siRNA for BCL6 (siBCL6-1 HSS100968 Life Technologies, siBCL6-2 SI00311129 Qiagen, siBCL6-3 SI0031143 Qiagen and siBCL6-4 SI0031150 Qiagen) or control (GFP targeting siRNA) using 96-well electroporation (SF buffer, Lonza).
Cells were grown on U-bottom 96-well plates at respective concentrations sufficient to keep untreated cells under exponential growth by the time of read-out after treatment. Cells were exposed to each drug alone and to the combination of both drugs on the same plate in 48 h experiments. In sequential experiments, compounds were added 48 h apart in 72 h experiments. Cell viability was then determined using a fluorometric assay based on the resazurin reduction activity of the cells (Cell Titer Blue, Promega) and confirmed by trypan blue dye-exclusion (Sigma). Fluorescence was determined for controls and three replicates per treatment condition using the Synergy4 microplate reader (BioTek). Standard curves were obtained for each individual cell line with the cell count and fluorescence values. The number of viable cells was obtained using the least-squares regression method of the standard curve and by doing a ratiometric quantification of viable cells normalized to the respective controls. […] A cell killing effect was calculated as the 1 — normalized viability value.

[9] = test system: OCI-Ly1 xenografts; assay: OCI-Ly1 xenograft tumor growth; assay type: in vivo; settings: OCI-Ly1 xenografts in SCID mice, i.p. 10 days; RI-BPI 25 mg/kg/day, ABT-737 50 mg/kg/day, bortezomib 0.3 mg/kg/day, MLN4924 15 mg/kg every 12 h; p<0.05, T-test
Description: (§3) For these experiments OCI-Ly1 and OCI-Ly7 cells were injected in the right flank of SCID mice (n = 80 for each cell line) and tumor growth was allowed until reaching a volume of 75 - 100 mm^3. […] Tumor growth was measured every day during the 10-day treatment course and the area under the curve (AUC) was calculated.
(§4) Mouse xenografts: Animal procedures followed NIH protocols and were approved by the Animal Institute Committee of the Weill Cornell College or Medicine. SCID mice were subcutaneously injected on the right flank with GCB-DLBCL cell lines OCI-Ly1, OCI-Ly7 and SU-DHL6. Tumor volumes were monitored every day using electronic calipers (Fischer Scientific). When tumor reached a palpable size (around 75 to 100 mm^3) animals were randomized into 8 groups of 10 mice (or four groups of 5 mice for SU-DHL6 xenografts) and treated intraperitoneally accordingly to the schedule and doses shown in Figure 5A. In combinatorial treatments, mice were injected with RI-BPI (or vehicle) alone the first day followed by the combination the subsequent days. We used the area-under-the-curve (AUC) as the quantitative metric to represent the evolution of tumor volume over the time frame (10 – 13 days) of the experiment. The comparisons between treated and control mice were done using MANOVA followed by pair-wise comparison using the two-tailed T-test or Mann Whitney test for SU-DHL6 mice. Rat pharmacokinetic: Animal procedures followed NIH protocols and were conducted by Calvert Laboratories (study 0835RM44.001, Scott Township, PA). Briefly, male Sprague=Dawley rats (n = 3) were injected intravenously with 10 mg/kg of RI-BPI in sterile 50% water:50% saline and whole blood samples were collected through a jugular vein catheter at several time-points. Derived plasma samples were analyzed by HPLC-UV to determine RI-BPI concentration. Pharmacokinetic parameters were estimated using a non-compartmental approach consistent with the route of administration. The AUC that describe the total exposure to RI-BPI was estimated with the linear trapezoidal method and used to derive in vitro exposure doses.

[10] = test system: BCL6-dependent GCB-DLBCL cell lines; assay: Dose reduction index, MLN4924 or bortezomib after RI-BPI; assay type: cell-based; settings: 8 BCL6-dependent GCB-DLBCL cell lines pre-treated with RI-BPI; all the cell lines tested
Description: as §2

[11] = test system: NFkB (p50, p52, p65); assay: NFkB DNA-binding activity assay (TransAM), HBL-1 cells; assay type: cell-based; settings: HBL-1 (ABC-DLBCL) cells; drug at GI50 for 24 h; decreased almost completely
Description: The DNA-binding capacity of NFkB (p50, p52, c-Rel, Rel-B and p65) was assayed by a plate-based assay (TransAM, Active Motif, Carlsbad) following the manufacturer instructions. Briefly, 5×10^6 GCB-DLBCL cells were treated with vehicle, bortezomib or MLN4924 and 10 μg of nuclear lysates were added to the wells containing pre-adsorbed NFkB consensus or competitor (mutant) oligonucleotides. HBL-1 cells (ABC-DLBCL) were used as positive controls for the assay. After incubation and washing, primary anti-NFkB antibody was added to each well, followed by HPR-anti-rabbit secondary antibody. After HRP substrate addition, absorbance was read at 450 nm with a reference wavelength of 655 nm (Synergy4, Biotek). In this assay the absorbance is directly proportional to the quantity of DNA-bound transcription factor present in the sample. Experiments were carried out in four replicates. Results were expressed as mean absorbance values with SEM to mutant probe. P-values were obtained by two-tailed T-test.

[12] = test system: NOXA; assay: NOXA immunoblot; assay type: cell-based; settings: SU-DHL6 and OCI-Ly1 cells, 24 h
Description: (§5) Cell pellets containing 5 × 10^6 cells were washed with ice-cold phosphate buffer saline and lysed with RIPA buffer (Tris-HCl 50mM, NaCl, 150 mM, NP-40 1%, Sodium Deoxylcholate 0.25%, SDS 0.1%), and fresh protease inhibitor cocktail (Roche) was added. Protein concentration in lysates was determined by BCA assay (Pierce) and 15 μg of protein sample were loaded on polyacrylamide electrophoresis pre-cast gels (BioRad). PVDF membranes were blocked with 5% non-fat dry milk (Blotting buffer, BioRad). Experiments were conducted at least in independent triplicates. Densitometry analysis was performed using ImageJ. We used the following primary antibodies: mouse anti-BCL6 (SC-7388, Santa Cruz), rabbit anti-BCL2 (SC-7382, Santa Cruz), rabbit anti-MCL1 (SC-819, Santa Cruz), rabbit anti-BIM (2933S, Cell Signaling Technologies), rabbit anti-BLC-XL (2764S, Cell Signaling Technologies), mouse anti-GAPDH (ab8245, Abcam), rabbit anti-NOXA (Santa Cruz), mouse anti-tubulin (T9026, Sigma-Aldrich), rabbit anti-BMF (ab181148, Abcam) and rabbit anti-caspase 9 (9502, Cell Signaling Technologies).

[13] = test system: OCI-Ly7 xenografts; assay: OCI-Ly7 xenograft tumor growth; assay type: in vivo, SCID mice; settings: p<0.05, T-test; for tumor growth at day 10 (AUC of tumor volume) vs vehicle: OCI-Ly7 xenografts in SCID mice, i.p. 10 days, RI-BPI 25 mg/kg/day, obatoclax 2 mg/kg/day, bortezomib 0.3 mg/kg/day, MLN4924 15 mg/kg every 12 h
Description: as §3, §4

[14] = test system: BCL6-dependent GCB-DLBCL cells; assay: Growth inhibition (GI50), panel of BCL6-dependent GCB-DLBCL cells; assay type: cell-based; settings: 6 cell lines of the GCB-DLBCL panel; single agent
Description: as §2

[15] = for MPV: C57BL/6 mice, i.p., schedule and doses of xenograft mice (RI-BPI 25, obatoclax 2, bortezomib 0.3 mg/kg/day, MLN4924 15 mg/kg every 12 h), vehicle 6.7
Source text: as §1
Hematological and biochemical parameters of C57BL/6 mice treated with the schedule and doses of OCI-Ly1 and OCI-Ly7

[16] = test system: BMF; assay: BMF immunoblot; assay type: cell-based; settings: SU-DHL6 cells
Description: as §5

[17] = test system: OCI-Ly1 lymphoma tissues; assay: TUNEL assay of xenografted lymphoma tissues; assay type: in vivo, SCID mice; settings: post-treatment OCI-Ly1 lymphoma tissues; Mann-Whitney p = 0.0004 (RI-BPI), 0.002 (obatoclax), 0.0008 (bortezomib)
Description: DNA fragmentation coupled to the apoptotic response was detected in morphologically identifiable nuclei and apoptotic bodies present in formalin-fixed paraffin-embedded tumors by the TUNEL assay (ApopTag, Chemicon, Temecula, California) following the manufacturer's instructions. Tissue slides were pre-treated with 0.5% trypsin for 15 minutes (Zymed, San Francisco, California), to improve the exposure of DNA.

[18] = test system: NFkB (p50); assay: NFkB DNA-binding activity assay (TransAM), OCI-Ly1 cells; assay type: cell-based; settings: drug at GI50 for 24 h, only p50 changed

Structure (SMILES)	sensitivity to BH3 mimetic after RI-BPI treatment (dose reduction index) [2]	sensitivity as single agent (GI50) [3]	sensitivity as single agent (GI50) [4]	sensitivity as single agent (GI50) [5]	sensitivity as single agent (GI50) [6]	sensitivity as single agent (GI50) [7]	tumor growth at day 10 (AUC of tumor volume) vs vehicle [9]	enhancement of response to RI-BPI (dose reduction index) [10]	NFκB activation (DNA binding of p50, p52 and p65) [11]	NOXA protein levels [12]	tumor growth at day 10 (AUC of tumor volume) vs vehicle [13]	MPV [15]	percent of apoptotic nuclei (TUNEL) vs vehicle control [17]	other results
CN(C)CC[C@H](CSc1ccccc1)Nc1ccc(S(=O)(=O)NC(=O)c2ccc(N3CCN(Cc4ccccc4-c4ccc(Cl)cc4)CC3)cc2)cc1[N+](=O)[O-] [ABT-737]	gained sensitivity	sensitive	sensitive	sensitive	sensitive	highly resistant	significantly reduced							sensitization to RI-BPI by pre-treatment with ABT-737 [1]: failed to sensitize; loss of viability ([8]; OCI-Ly1 transfected with BCL6 siRNA, BCL6 knockdown alone 68%, p < 0.03, T-test): 97%; cells killed (loss of viability) ([8]; OCI-Ly1 transfected with control siRNA): 57%
NS(=O)(=O)OC[C@@H]1C[C@@H](n2ccc3c(N[C@H]4CCc5ccccc54)ncnc32)C[C@@H]1O [MLN4924]							significantly reduced	favorable DRIs	decreased	significant stabilization of NOXA	significantly reduced	6.5 fL		GI50 [14]: > 100 nM; BMF protein levels [16]: increased
CC(C)C[C@H](NC(=O)[C@H](Cc1ccccc1)NC(=O)c1cnccn1)B(O)O [bortezomib]			resistant	resistant			significantly reduced	favorable DRIs	decreased	significant stabilization of NOXA	significantly reduced	6.6 fL	significantly increased	single-agent efficacy compared between drugs ([13]; OCI-Ly7 xenografts): more effective than obatoclax; NFκB activation (DNA binding of p50) [18]: mild decrease; toxicity by body weight follow-up, plasma hematology and biochemistry parameters ([15]; mouse, in vivo): mild monocytosis and AST increase
COC1=CC(c2cc3ccccc3[nH]2)=N/C1=C\c1[nH]c(C)cc1C [obatoclax]	gained sensitivity	sensitive	sensitive	sensitive	sensitive	highly resistant					significantly reduced	6.4 fL	significantly increased	
